Source: patent EP1561465A2, “Methods of use of fluoroquinolone compounds against bacteria” (LG Life Sciences, Ltd., priority 1999, dated 2001)
Values after ≈ are worked out from the molar mass of the structure shown. Read-outs that look alike come from different tables or passages of the source.

Tests used:
Assay type in all cases: cell-based
Hafnia alvei [1] = test: MIC by agar dilution (NCCLS M7-A4), 288 enteropathogenic isolates, eight quinolones; conditions: Hafnia alvei (n = 32)
Hafnia alvei [2] = test: MIC by agar dilution (NCCLS M7-A4), 288 enteropathogenic isolates, gemifloxacin and 15 other antimicrobials; conditions: Hafnia alvei N= 32
[3] = system: Mycobacterium tuberculosis (MTB); test: MIC by proportions method (NCCLS M24-T, 1995), 82 MTB strains; conditions: compared with the other quinolones
P. aeruginosa = test: MIC by two-fold serial agar dilution, quinolone-resistant strains; conditions: Pseudomonas aeruginosa
Streptococcus pneumoniae = test: MIC by NCCLS reference broth microdilution, 450 respiratory tract pathogens; conditions: Streptococcus pneumoniae
E. coli = test: microbe, parasite or virus in culture; conditions: Escherichia coli
Enterobacter spp. = test: MIC by agar dilution (NCCLS), 322 nosocomial Gram negative isolates, Athens 1998; conditions: n = 57 isolates
Enterococcus faecium = test: MIC by agar macrodilution (NCCLS), 373 Gram positive isolates, Athens 1998
[4] = Streptococcus pneumoniae (n = 100)
[5] = erythromycin resistant M phenotype (n = 16)
[6] = erythromycin resistant MLSB phenotype (n = 16)
[7] = penicillin intermediate (n = 16)
[8] = penicillin susceptible (n = 20)

N[C@@H]1[C@H]2CN(c3nc4c(cc3F)c(=O)c(C(=O)O)cn4-c3ccc(F)cc3F)C[C@@H]12 [Trovafloxacin, trovafloxacin]
MIC90 (Hafnia alvei [1]): 0.06 µg/mL (≈ 0.144 µM) | MIC Range (Hafnia alvei [1]): 0.03 to 0.12 µg/mL | MIC (Hafnia alvei [2]; 24 h, read-out: MIC (mg/L) Range): 0.03 to 0.12 mg/L (≈ 0.0721 to 0.288 µM) | MIC (Hafnia alvei [2]; read-out: MIC (mg/L) 50%): 0.06 mg/L (≈ 0.144 µM) | MIC (Hafnia alvei [2]; read-out: MIC (mg/L) 90%): 0.06 mg/L (≈ 0.144 µM) | in vitro activity against MTB [3]: lower in vitro activity | MIC (P. aeruginosa): 1 µg/mL (≈ 2.4 µM) | MIC (Streptococcus pneumoniae; [4]): 0.03 to 0.25 µg/mL (≈ 0.0721 to 0.6 µM) | MIC50 (Streptococcus pneumoniae; [4]): 0.12 µg/mL (≈ 0.288 µM) | MIC90 (Streptococcus pneumoniae; [4]): 0.12 µg/mL (≈ 0.288 µM) | MIC (Streptococcus pneumoniae; [5]): 0.06 to 0.12 µg/mL (≈ 0.144 to 0.288 µM) | MIC50 (Streptococcus pneumoniae; [5]): 0.06 µg/mL (≈ 0.144 µM) | MIC90 (Streptococcus pneumoniae; [5]): 0.12 µg/mL (≈ 0.288 µM) | MIC (Streptococcus pneumoniae; [6]): 0.06 to 0.12 µg/mL (≈ 0.144 to 0.288 µM) | MIC50 (Streptococcus pneumoniae; [6]): 0.06 µg/mL (≈ 0.144 µM) | MIC90 (Streptococcus pneumoniae; [6]): 0.12 µg/mL (≈ 0.288 µM) | MIC (Streptococcus pneumoniae; multi-drug resistant (n = 16)): 0.06 to 0.12 µg/mL (≈ 0.144 to 0.288 µM) | MIC50 (Streptococcus pneumoniae; multi-drug resistant (n = 16)): 0.06 µg/mL (≈ 0.144 µM) | MIC90 (Streptococcus pneumoniae; multi-drug resistant (n = 16)): 0.12 µg/mL (≈ 0.288 µM) | MIC (Streptococcus pneumoniae; [7]): 0.06 to 0.12 µg/mL (≈ 0.144 to 0.288 µM) | MIC50 (Streptococcus pneumoniae; [7]): 0.12 µg/mL (≈ 0.288 µM) | MIC90 (Streptococcus pneumoniae; [7]): 0.12 µg/mL (≈ 0.288 µM) | MIC (Streptococcus pneumoniae; penicillin resistant (n = 18)): 0.06 to 0.25 µg/mL (≈ 0.144 to 0.6 µM) | MIC50 (Streptococcus pneumoniae; penicillin resistant (n = 18)): 0.12 µg/mL (≈ 0.288 µM) | MIC90 (Streptococcus pneumoniae; penicillin resistant (n = 18)): 0.12 µg/mL (≈ 0.288 µM) | MIC (Streptococcus pneumoniae; [8]): 0.06 to 0.12 µg/mL (≈ 0.144 to 0.288 µM) | MIC50 (Streptococcus pneumoniae; [8]): 0.12 µg/mL (≈ 0.288 µM) | MIC90 (Streptococcus pneumoniae; [8]): 0.12 µg/mL (≈ 0.288 µM) | MIC50 (E. coli; E. coli (13 strains), quinolone-resistant, read-out: MIC50): 0.063 µg/mL (≈ 0.151 µM) | MIC90 (E. coli; E. coli (13 strains), quinolone-resistant, read-out: MIC90): 0.5 µg/mL (≈ 1.2 µM) | MIC (E. coli; E. coli KU1029, mutant type SP (spontaneous mutant in the DNA gyrase)): 0.063 µg/mL (≈ 0.151 µM) | MIC (E. coli; E. coli KU1030, mutant type SP): 0.063 µg/mL (≈ 0.151 µM) | MIC (E. coli; E. coli KU1031, mutant type SP): 0.063 µg/mL (≈ 0.151 µM) | MIC (E. coli; E. coli KU1032, mutant type SP): 0.25 µg/mL (≈ 0.6 µM) | MIC (E. coli; E. coli KU1033, mutant type SP): 0.031 µg/mL (≈ 0.0745 µM) | MIC (E. coli; E. coli KU1034, mutant type GA (DNA gyrase A)): 0.5 µg/mL (≈ 1.2 µM) | MIC (E. coli; E. coli KU1035, mutant type GA (DNA gyrase A)): 0.5 µg/mL (≈ 1.2 µM) | MIC (E. coli; E. coli KU1036, mutant type GB (DNA gyrase B)): 0.063 µg/mL (≈ 0.151 µM) | MIC (E. coli; E. coli KU1038, mutant type SP): 0.063 µg/mL (≈ 0.151 µM) | MIC (E. coli; E. coli KU1039, mutant type SP): 0.25 µg/mL (≈ 0.6 µM) | MIC (E. coli; E. coli KU1040, mutant type SP): ≤ 0.008 µg/mL | MIC (E. coli; E. coli KU1041, mutant type SP): 0.5 µg/mL (≈ 1.2 µM) | MIC (E. coli; E. coli KU1042, mutant type SP): 0.125 µg/mL (≈ 0.3 µM) | MIC50 (Enterobacter spp.; Enterobacter, read-out: MIC50): 0.125 µg/mL (≈ 0.3 µM) | MIC90 (Enterobacter spp.; Enterobacter, read-out: MIC90): 16 µg/mL (≈ 38.4 µM) | MIC Range (Enterobacter spp.): ≤0.03 to 64 µg/mL | MIC distribution (µg/ml) 0.03 (Enterococcus faecium): 0 | MIC distribution (µg/ml) 0.06 (Enterococcus faecium): 0 | MIC distribution (µg/ml) 0.125 (Enterococcus faecium): 0 | MIC distribution (µg/ml) 0.25 (Enterococcus faecium): 1 | MIC distribution (µg/ml) 0.5 (Enterococcus faecium): 6 | MIC distribution (µg/ml) 1 (Enterococcus faecium): 2 | MIC distribution (µg/ml) 2 (Enterococcus faecium): 0 | MIC distribution (µg/ml) 4 (Enterococcus faecium): 0 | MIC distribution (µg/ml) 8 (Enterococcus faecium): 1 | MIC distribution (µg/ml) 16 (Enterococcus faecium): 0 | MIC distribution (µg/ml) ≤0.015 (Enterococcus faecium): 0 | MIC distribution (µg/ml) ≥32 (Enterococcus faecium): 4 | MIC50 (Enterococcus faecium; Enterococcus faecium, n = 14 isolates, read-out: MIC50): 0.5 µg/mL (≈ 1.2 µM) | MIC90 (Enterococcus faecium; Enterococcus faecium, n = 14 isolates, read-out: MIC90): ≥ 32 µg/mL
